Measurements as given in patent publication US20250009895A1, “DRUG LOADING MONOMOLECULAR NANO POLYMER, PRODRUG, MICELLE, DRUG DELIVERY SYSTEM, PREPARATION METHOD, AND USE” (priority 2021, published 2025).

System: A549 lung cancer subcutaneous xenograft model
Experiment: Tumor drug accumulation test, Pt in tumor by ICP-MS
Format: in vivo, Bal b/c nude mice
Conditions: tail vein injection, CPT 5 mg/kg and Pt 1.8 mg/kg
Experimental: The tumor model used in this example was A549 lung cancer subcutaneous xenograft model. Female Bal b/c nude mice at the age of 8 weeks were administrated with the drug formulation via tail vein injection at a dose of 200 microliters with CPT at 5 mg/kg and Pt at 1.8 mg/kg. Equivalent amounts of cisplatin and the self-assembled dual-drug nano-formulation cisplatin@PEG-PGlu(ss-CPT) served as controls. At different time points after the intravenous injection, the mice were dissected, and the tumor tissues were collected and fully dissolved in concentrated nitric acid. The Pt contents in the tumor tissues were measured using ICP-MS.

N.N.[Cl][Pt][Cl] [cisplatin]
drug (Pt) concentration / enrichment in the tumor: relatively low
